One block for each compound: values may come before it.
Assays:
[1] = test system: Human immunodeficiency virus 1; experiment: Antiviral activity against HIV1 NL4-3 by cellular assay; assay type: functional, organism-based; settings: Human immunodeficiency virus 1, NL4-3
[2] = test system: Human immunodeficiency virus 1; experiment: Antiviral activity against HIV1 NL4-3 harboring Q148R mutant by cellular assay; assay type: functional, organism-based; settings: Human immunodeficiency virus 1, NL4-3
[3] = test system: Human immunodeficiency virus 1; experiment: Antiviral activity against HIV1 NL4-3 harboring […]/Q148H mutant by cellular assay; assay type: functional, organism-based; settings: Human immunodeficiency virus 1, NL4-3
[4] = test system: Human immunodeficiency virus 1; experiment: Antiviral activity against HIV1 NL4-3 harboring N155H mutant by cellular assay; assay type: functional, organism-based; settings: Human immunodeficiency virus 1, NL4-3
[5] = test system: Human immunodeficiency virus 1; experiment: Ratio of EC50 for antiviral activity against HIV1 NL4-3 harboring Q148R mutant to EC50 for antiviral activity against HIV1 NL4-3; assay type: functional
[6] = test system: Human immunodeficiency virus 1; experiment: Ratio of EC50 for antiviral activity against HIV1 NL4-3 harboring G140S/Q148H mutant to EC50 for antiviral activity against HIV1 NL4-3; assay type: functional
[7] = test system: Human immunodeficiency virus 1; experiment: Ratio of EC50 for antiviral activity against HIV1 NL4-3 harboring N155H mutant to EC50 for antiviral activity against HIV1 NL4-3; assay type: functional
[8] = Clearance in rat at 1 mg/kg, iv; assay type: ADME, organism-based; settings: in vivo
[9] = Volume of distribution at steady state in rat at 1 mg/kg, iv; assay type: ADME, organism-based; settings: in vivo, read-out: Vdss
[10] = AUC in rat at 1 mg/kg, iv; assay type: ADME, organism-based; settings: in vivo
[11] = biological target: Human immunodeficiency virus type 1 integrase (Human immunodeficiency virus 1, UniProt Q7ZJM1); experiment: Inhibition of HIV-1 integrase strand transfer activity
Chain of Human immunodeficiency virus type 1 integrase (Q7ZJM1 whole entry): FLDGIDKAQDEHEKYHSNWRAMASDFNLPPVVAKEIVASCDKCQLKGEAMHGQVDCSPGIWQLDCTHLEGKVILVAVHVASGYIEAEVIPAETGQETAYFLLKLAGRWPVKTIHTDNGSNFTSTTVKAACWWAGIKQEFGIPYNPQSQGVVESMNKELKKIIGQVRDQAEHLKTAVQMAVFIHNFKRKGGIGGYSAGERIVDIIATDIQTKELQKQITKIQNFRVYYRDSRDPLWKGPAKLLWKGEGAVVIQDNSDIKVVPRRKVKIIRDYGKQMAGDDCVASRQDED

Compound: CC1(C)OCCn2c1nc(C(=O)NCc1ccc(F)cc1)c(O)c2=O
EC50 [1]: 3 nM
EC50 [2]: 300 nM
EC50 [3]: > 8000 nM
EC50 [4]: 140 nM
Ratio EC50 [5]: 99
Ratio EC50 [6]: >2666
Ratio EC50 [7]: 47

Compound: Cn1c(Cc2ccc(F)cc2)cnc1-c1nc2n(c(=O)c1O)CCOC2(C)C
EC50 [1]: 10 nM
EC50 [2]: 61 nM
EC50 [3]: 530 nM
EC50 [4]: 36 nM
clearance [8]: 11 mL/min/kg
Vd [9]: 0.5 L/kg
AUC [10]: 3.92 µM·h

EC50 [11]: > 64 µM
Compound: CC1(C)OCCn2c1nc(-c1nc(Cl)c(Cc3ccc(F)cc3)[nH]1)c(O)c2=O

Compound: CC1(C)OCCn2c1nc(-c1ncn(Cc3ccc(F)cc3)n1)c(O)c2=O
EC50 [1]: 7 nM
EC50 [2]: 220 nM
EC50 [3]: 3700 nM
EC50 [4]: 16 nM
Ratio EC50 [5]: 34
Ratio EC50 [6]: 563
Ratio EC50 [7]: 2
clearance [8]: 52 mL/min/kg
Vd [9]: 1.5 L/kg
AUC [10]: 0.872 µM·h

Compound: CC1(C)OCCn2c1nc(-c1ncc(Cc3ccc(F)cc3)s1)c(O)c2=O
EC50 [1]: 3 nM
EC50 [2]: 91 nM
EC50 [3]: 540 nM
EC50 [4]: 34 nM
Ratio EC50 [5]: 30
Ratio EC50 [6]: 177
Ratio EC50 [7]: 11

Compound: CC1(C)OCCn2c1nc(-c1nnc(Cc3ccc(F)cc3)[nH]1)c(O)c2=O
EC50 [1]: 81 nM
EC50 [2]: 1500 nM
EC50 [3]: > 40000 nM
EC50 [4]: 4000 nM
Ratio EC50 [5]: 19
Ratio EC50 [6]: >500
Ratio EC50 [7]: 49

Compound: CC1(C)OCCn2c1nc(-c1ncc(Cc3ccc(F)cc3)[nH]1)c(O)c2=O
EC50 [1]: 6 nM
EC50 [2]: 33 nM
EC50 [3]: 320 nM
EC50 [4]: 2 nM
Ratio EC50 [5]: 6
Ratio EC50 [6]: 54
Ratio EC50 [7]: 0.3
clearance [8]: 10 mL/min/kg
Vd [9]: 0.3 L/kg
AUC [10]: 4.55 µM·h

EC50 [11]: 9.3 µM
Compound: Cn1cc(Cc2ccc(F)cc2)nc1-c1nc2n(c(=O)c1O)CCOC2(C)C

Compound: Cn1c(Cc2ccc(F)cc2)nnc1-c1nc2n(c(=O)c1O)CCOC2(C)C
EC50 [1]: 81 nM
EC50 [2]: 450 nM
EC50 [3]: 1100 nM

Compound: CC1(C)OCCn2c1nc(-c1ncc(Cc3ccc(F)cc3)o1)c(O)c2=O
EC50 [1]: 22 nM
EC50 [2]: 330 nM
EC50 [3]: 6900 nM
EC50 [4]: 88 nM
Ratio EC50 [5]: 15
Ratio EC50 [6]: 318
Ratio EC50 [7]: 4

Compound: CC1(C)OCCn2c1nc(-c1nnc(Cc3ccc(F)cc3)o1)c(O)c2=O
EC50 [1]: 390 nM
EC50 [2]: 190 nM
EC50 [3]: > 40000 nM
EC50 [4]: 1300 nM
Ratio EC50 [5]: 0.5
Ratio EC50 [6]: >100
Ratio EC50 [7]: 3

Compound: CC1(C)OCCn2c1nc(-c1cc(Cc3ccc(F)cc3)[nH]n1)c(O)c2=O
EC50 [1]: 120 nM
EC50 [2]: 3000 nM
EC50 [3]: 4200 nM
EC50 [4]: 260 nM
Ratio EC50 [5]: 26
Ratio EC50 [6]: 36
Ratio EC50 [7]: 22

Compound: CC1(C)OCCn2c1nc(-c1cn(Cc3ccc(F)cc3)cn1)c(O)c2=O
EC50 [1]: 4 nM
EC50 [2]: 26 nM
EC50 [3]: 320 nM
EC50 [4]: 9 nM
Ratio EC50 [5]: 7
Ratio EC50 [6]: 80
Ratio EC50 [7]: 2
clearance [8]: 127 mL/min/kg
Vd [9]: 3.5 L/kg
AUC [10]: 0.353 µM·h

EC50 [11]: > 30 µM
Compound: Cc1nc(-c2nc3n(c(=O)c2O)CCOC3(C)C)nn1Cc1ccc(F)cc1

— ChEMBL document CHEMBL4609988, “Heterocycle amide isosteres: An approach to overcoming resistance for HIV-1 integrase strand transfer inhibitors” (Bioorg Med Chem Lett, 2020)
